SMILES strings stand for the structures. “Also recorded” adds a separate entry of the source.

Holding throughout (format): cell-based
In test [1] the test system is panel of breast cancer cell lines. The experiment in a line: 72-hour in vitro proliferation combination assay, compound A with targeted agents and chemotherapies (Example 3, Table 21).
A further test deals with HCC1187 (TNBC). The experiment in a line: Cell viability combination assay (Cell Titer Glo, Bliss synergy matrix), compound A + SN-38. As to conditions: HCC1187 1st Replicate (n = 5); SN-38 0.0000 μM; Compound A μM = c0 of row; 72 h. From the text:
(§1) Cells were passaged according to ATCC guidelines with 0.25% Trypsin/EDTA (1× GIBCO-25200).
(§2) Calculated values were compared to experimental results generated in the sixty-three-concentration checkerboard. Synergy or antagonism scores were generated depending on whether the observed growth inhibition was greater than or less than the calculated values, respectively.
(§3) Data for combination assays is presented in three formats.
Background: Cellular ATP, detected with luciferase, serves as a proxy for viable cell number.

The subject of the next test is HCC1806. Kind of test: Cell viability combination assay (Cell Titer Glo, Bliss synergy matrix), paclitaxel 4 h pretreatment then compound A. The settings on record: for Synergy Results (95% CI): Paclitaxel 0.000 μM. The protocol: as §1
(§4) Viability assessments were performed using Cell Titer Glo™ (Promega #G9241) according to manufactures microwell plate protocol and read for luminescence on Synergy Neo2 plate reader.
(§5) For synergy matrix assays, TNBC cell lines were seeded 10,000 cells per well in clear-bottomed white 96-well plates (Corning #3909) in 100 μL of recommended cell culture medium. Plates were incubated at 37° C. and 100% RH for 20 hours prior to compound exposure.
(§6) Cells were then exposed to compound A with the same checkerboard matrix using D300 dispenser and incubated for 48 hours prior to measurement of viability by Cell Titer Glo.
as §2
(§7) These differences were summed up across the whole checker-board (sixty-three wells) to give cumulative synergy and antagonism scores with units of μM^2% to reflect the 2D surface of the dose responses.
as §3

In a further test the test system is MCL1-BAK Dimer. Kind of test: MCL1-BAK dimer MSD assay in TNBC cell lines after paclitaxel. The settings on record: HCC70, MDA-MB-468, HCC1806; paclitaxel 1 μM for 4 hours, overnight incubation. The protocol: (§8) Cell lysates for MSD assays were generated using 1× Lysis Buffer (10× cell signaling CST-9803) 100× Protease Inhibitor, Phosphatase Inhibitor I, Phosphatase Inhibitor II (Meso Scale Discovery Inhibitor Pack R70AA-1, and PMSF (SIGMA cat #7626)
(§9) MCL-BAK and MCL1-BIM dimer assays and total MCL1 assay were developed by MSD Custom Assay Services and run using the MSD U-PLEX Development Pack (K15227N) and protocols' revision “2018 March rev 2”. GAPDH was determined by MSD using standard assay K151PWD. All plates were read on MSD SECTOR Imager 2400 using MSD Read Buffer T (R92TC).
(§10) For MSD assays, TNBC cell lines were seeded 25,000 cells per well in clear-bottomed white 96-well plates (Corning #3909) in recommended cell culture medium. Plates were incubated at 37° C. and 100% RH for 20 hours prior to compound exposure. […] After an additional 20 hours, samples were harvested by aspirating away supernatant and 125 μl of 1× lysis buffer was added to each well. Plates were set on ice briefly and transferred to a rocking platform at 4° C. for 20 minutes. Plates were placed on dry ice, snap frozen for 10 minutes then stored at −80° C. until tested.
(§11) MCL1 and MCL1-BAK and MCL1-BIM dimer assays were run using materials and protocols provided by MSD Custom Assay Services based on their U-Plex technology. […] 150 μl of 2× read buffer was added to each well and plates were read on an MSD SECTOR Imager 2400. […]

The test system of a further test is MDA-MB-468. Kind of test: Cell viability combination assay (Cell Titer Glo, Bliss synergy matrix), paclitaxel 4 h pretreatment then compound A. As to conditions: Homo sapiens, MDA-MB-468, 4 h; read-out: Percent Inhibition. The protocol: as §1, §4, §5, §6, §2, §7, §3
The test system of a further test is HCC70. The test is described as above. As to conditions: Homo sapiens, HCC70, 4 h; read-out: Percent Inhibition. The protocol:
as §1, §4, §5, §6, §2, §7, §3

For another test, the system named is MCL1-BIM Dimer. Kind of test: MCL1-BIM dimer MSD assay in TNBC cell lines after paclitaxel. As to conditions: HCC70, MDA-MB-468, HCC1806; paclitaxel 1 μM for 4 hours, overnight incubation. The protocol:
as §8, §9, §10, §11

The subject of another test is MCL1. Kind of test: Total MCL1 MSD assay in TNBC cell lines after paclitaxel. The settings on record: HCC70, MDA-MB-468, HCC1806; paclitaxel 1 μM for 4 hours, overnight incubation. The protocol: as §8, §9, §10, §11
The next test concerns FBXW7. The experiment in a line: FBXW7 expression by Protein Simple (Simple Western) in TNBC cell lines after paclitaxel. The settings on record: HCC70, MDA-MB-468, HCC1806; paclitaxel 1 μM for 4 hours, overnight incubation.
The mark [2] stands for this setting: AU565 cell line, compound A × listed agent, 72-hour in vitro proliferation assay.
The mark [3] stands for this setting: BT-20 cell line, compound A × listed agent, 72-hour in vitro proliferation assay.
Setting [4] is: DU-4475 cell line, compound A × listed agent, 72-hour in vitro proliferation assay.
Where [5] appears, read: BT-549 cell line, compound A × listed agent, 72-hour in vitro proliferation assay.
Where [6] appears, read: Homo sapiens, read-out: Percent Inhibition.
Setting [7] is: BT-474 cell line, compound A × listed agent, 72-hour in vitro proliferation assay.
Setting [8] is: KPL-1 cell line, Compound A × named agent, 72-hour proliferation.
Setting [9] is: MCF7, combination with compound A, 72-hour proliferation.
The mark [10] stands for this setting: MDA-MB-175-VII, combination with compound A, 72-hour proliferation.
The mark [11] stands for this setting: MDA-MB-231, combination with compound A, 72-hour proliferation.
Setting [12] is: MDA-MB-361, combination with compound A, 72-hour proliferation.
Setting [13] is: MDA-MB-436, combination with compound A, 72-hour proliferation.
[14] abbreviates: MDA-MB-453, combination with compound A, 72-hour proliferation.
Setting [15] is: MDA-MB-468, combination with compound A, 72-hour proliferation.
The mark [16] stands for this setting: SK-BR-3 cell line, combination Compound A × listed agent, 72-hour proliferation.
Setting [17] is: SUM159PT cell line, combination Compound A × listed agent, 72-hour proliferation.
Setting [18] is: T47D cell line, combination Compound A × listed agent, 72-hour proliferation.
[19] abbreviates: ZR-75-1 cell line, combination Compound A × listed agent, 72-hour proliferation.
The mark [20] stands for this setting: ZR-75-30 cell line, combination Compound A × listed agent, 72-hour proliferation.

Description for FBXW7: Simple Western immunoassays take place in a capillary. Samples and reagents are loaded into an assay plate and placed in a Protein Simple Instrument. Cell lysates are loaded into the capillary automatically and separated by size as they migrate through a stacking and separation matrix. The separated proteins are then immobilized to the capillary wall via a proprietary, photoactivated capture chemistry. Target proteins are identified using a primary antibody and immunoprobed using an HRP-conjugated secondary antibody and chemiluminescent substrate. The resulting chemiluminescent signal is detected and quantitated.
Lysates were prepared, diluted to 0.5 ug/ml in 1× lysis buffer. Simple Western platform is run on a 384-well plate.
Markers, internal ladders and DTT are provided by Simple Western in lyophilized forms. Reagents are resuspended as protocol describes. 20 uL of water is added to the markers. 40 ul of water is added to DTT, 20 ul of 10× sample buffer and 20 ul of DTT is mixed and called Z buffer. Markers are loaded in 1 A. 5 ul of lysate was added to 1.7 ml Eppendorf tube. 1.2 ul of Z reagent was added to each sample. The samples were heated at 100 C for 5 minutes, allowed to cool than spun in a microfuge for 30 seconds. Samples are loaded in wells A2-12. […] The resulting chemiluminescent signal is detected and quantitated.

In the case of `N.N.O=C([O-])C1(C(=O)[O-])CCC1.[Pt+2]` [Carboplatin], the “Best CI Level” value in [1] (setting [2]) worked out at 40; in [1] (setting [3]), 170; in test [1] (CAL-51 cell line, compound A × listed agent, 72-hour in vitro proliferation assay) it was 165; in test [1] (CAL-85-1 cell line, compound A × listed agent, 72-hour in vitro proliferation assay), 110; in test [1] (CAMA-1 cell line, compound A × listed agent, 72-hour in vitro proliferation assay), 180; in test [1] (setting [4]) it was 180. Also, the “Best CI Level” value in test [1] (EVSA-T cell line, compound A × listed agent, 72-hour in vitro proliferation assay) was 180.

As for `N.N.[Cl][Pt][Cl]` [Cisplatin], the “Best CI Level” value in test [1] (setting [2]) stood at 35; in test [1] (setting [3]), 65; in test [1] (setting [5]), 160; in test [1] (CAL-120 cell line, compound A × listed agent, 72-hour in vitro proliferation assay) it was 35; in test [1] (CAL-148 cell line, compound A × listed agent, 72-hour in vitro proliferation assay), 140; in test [1] (setting [4]) it was 40. The “Best CI Level” value in test [1] (HCC1143 cell line, compound A × listed agent, 72-hour in vitro proliferation assay) worked out at 55.

Broadly, the inhibition is the drop in the measured response relative to a control, in per cent. Take `COc1nn(C)cc1C(=O)N[S@@]1(=O)=NC(=O)c2ccc3c(c2)N(C[C@@H]2CC[C@H]2[C@@H](OC)CCC[C@H](C)C1)C[C@@]1(CCCc2cc(Cl)ccc21)CO3` [Compound A]: in the test with HCC1187 (TNBC), the “Percent Inhibition” value is 99.2%. In addition, the “Synergy Results (95% CI)” value in the test with HCC1806 (Compound A 0.004 μM), with HCC1806 (Compound A 1.000 μM), in the test with HCC1806 (Compound A 3.000 μM) and with HCC1806 (Compound A […]) was 0.0 in each case. In the test on HCC1806 (setting [6]), the inhibition at 0.004 µM was determined as 0.7%. In the test on HCC1806 (setting [6]), the inhibition at 1 µM is 8.6%. Moreover, the inhibition at 3 µM in the test on HCC1806 (setting [6]) stood at 17.9%.

On to `CC(=O)O[C@@]12CO[C@@H]1C[C@H](O)[C@@]1(C)C(=O)[C@H](O)C3=C(C)[C@@H](OC(=O)[C@H](O)[C@@H](NC(=O)OC(C)(C)C)c4ccccc4)C[C@@](O)([C@@H](OC(=O)c4ccccc4)[C@H]21)C3(C)C` [Docetaxel], for which the “Best CI Level” value in [1] (72 h) was found to be 170.

Turning to `CCOc1cc2ncc(C#N)c(Nc3ccc(OCc4ccccn4)c(Cl)c3)c2cc1NC(=O)/C=C/CN(C)C` [Neratinib], the “Bliss Volume” value turned out to be 28.98 in test [1] (setting [7]); 17.92 in [1] (setting [5]); 9.37 in test [1] (setting [8]); 20.28 in test [1] (setting [9]); 18.28 in [1] (setting [10]); 6.82 in [1] (setting [11]). Moreover, the “Bliss Volume” value in [1] (setting [12]) was 8.05; in [1] (setting [13]), 5.24; in [1] (setting [15]) it was 34.71; in [1] (setting [16]) it was 28.46; in test [1] (setting [17]) it was 15.93; in test [1] (setting [18]), 7.67. Also, the “Bliss Volume” value stood at 13.55 in test [1] (setting [19]) and 32.84 in test [1] (setting [20]). Moreover, the HSA volume is listed as 20.36 in test [1] (setting [7]); 13.17 in test [1] (setting [5]); 2.11 in test [1] (setting [8]); 8.47 in test [1] (setting [9]); 8.80 in test [1] (setting [10]); 2.87 in test [1] (setting [11]). The HSA volume in [1] (setting [12]) was 9.22; in [1] (setting [13]) it was −0.69; in [1] (setting [14]) it was 10.24; in test [1] (setting [16]) it was 11.39; in [1] (setting [17]) it was 11.51; in test [1] (setting [18]), 2.55. In addition, the HSA volume in test [1] (setting [19]) is 6.49; in [1] (setting [20]), 16.20. The “Loewe Volume” value in test [1] (setting [7]) turned out to be 18.83; in test [1] (setting [5]) it was 13.98; in test [1] (setting [8]), 2.47; in [1] (setting [9]) it was 8.60; in [1] (setting [10]), 7.95; in test [1] (setting [11]), 5.05. In addition, the “Loewe Volume” value in test [1] (setting [12]) is 8.69; in [1] (setting [13]) it was 0.79; in test [1] (setting [14]) it was 8.51; in test [1] (setting [15]), 9.11; in [1] (setting [17]), 12.90; in test [1] (setting [18]), 5.95. For the same molecule, the “Loewe Volume” value in [1] (setting [19]) is recorded as 7.51; in [1] (setting [20]), 14.61. Moreover, the “Synergy Score” value in test [1] (setting [7]) came out at 39.01; in test [1] (setting [5]), 25.15; in test [1] (setting [8]), 9.97; in [1] (setting [10]), 11.07; in [1] (setting [11]), 4.59; in test [1] (setting [12]), 10.96. Also, the “Synergy Score” value in test [1] (setting [13]) came to 4.11; in test [1] (setting [14]) it was 16.63; in [1] (setting [15]), 19.05; in test [1] (setting [16]) it was 22.77; in test [1] (setting [17]) it was 22.98; in test [1] (setting [18]) it was 11.73. In addition, the “Synergy Score” value is 10.39 in test [1] (setting [19]) and 30.49 in [1] (setting [20]). In addition, the “Best CI” value was 0.31 in test [1] (setting [5]); 0.55 in test [1] (setting [8]); 0.44 in [1] (setting [9]); 0.64 in test [1] (setting [10]); 0.26 in test [1] (setting [13]); 0.35 in [1] (setting [14]). Moreover, the “Best CI” value in test [1] (setting [16]) is listed as 0.12; in test [1] (setting [17]), 0.17; in test [1] (setting [19]), 0.86; in test [1] (setting [20]), 0.41.

With `CC(=O)O[C@H]1C(=O)[C@@]2(C)[C@H]([C@H](OC(=O)c3ccccc3)[C@]3(O)C[C@H](OC(=O)[C@H](O)[C@@H](NC(=O)c4ccccc4)c4ccccc4)C(C)=C1C3(C)C)[C@]1(OC(C)=O)CO[C@@H]1C[C@@H]2O` [Paclitaxel], in the test with MCL1-BAK Dimer, the “protein levels of MCL1-BAK dimers vs vehicle control (in words)” value is “Decreases; also recorded: reduced”. Also, in the test on MDA-MB-468, the inhibition at 0.0005 µM was found to be 1.1%, the inhibition at 1 µM was 65.1% and the inhibition at 3 µM was 70.5%. In the test with HCC70, the inhibition at 0.0005 µM is -2.3%, the inhibition at 1 µM was 53.3% and the inhibition at 3 µM turned out to be 61.4%. For the same molecule, in the test on MCL1-BIM Dimer, the “protein levels of MCL1-BIM dimers vs vehicle control (in words)” value is given as “Decreases; also recorded: reduced”. The “MCL1 protein levels vs vehicle control (in words)” value in the test with MCL1 was “Decreases; also recorded: reduced”. In the test on FBXW7, the “FBXW7 protein levels vs vehicle control (in words)” value was “Increases; also recorded: elevated”.
